Assay results: PubChem BioAssay AID1963842 (Molecular Pharmacology Branch, DTP, NCI, 2024)

System: 677734-321-R-J1-PDC complex spheroid viability
Experiment: Anticancer human tumor 677734-321-R-J1-PDC patient-derived soft tissue sarcoma cell line growth inhibition [POLQ]
Settings: for IC50: curve of first compound; for viability, T/C: stronger effect = lower value
How it was run: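 PDC + HUVEC + MSC complex spheroids; POLQ inhibitors ± partner drugs; top conc. at/near clinical Cmax, else 10 microM (SN-38 1 microM), half-log dilutions; 37 degrees C, 5% CO2.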

[1] = second compound 0.0316 µM, first compound 0.0316 µM
[2] = second compound 0.0316 µM, first compound 0.1 µM
[3] = second compound 0.0316 µM, first compound 0.316 µM
[4] = second compound 0.0316 µM, first compound 1 µM
[5] = second compound 0.0316 µM, first compound 3.16 µM
[6] = second compound 0.0316 µM, first compound 10 µM
[7] = second compound 0.1 µM, first compound 0.0316 µM
[8] = second compound 0.1 µM, first compound 0.1 µM
[9] = second compound 0.1 µM, first compound 0.316 µM
[10] = second compound 0.1 µM, first compound 1 µM
[11] = second compound 0.1 µM, first compound 3.16 µM
[12] = second compound 0.1 µM, first compound 10 µM
[13] = second compound 0.316 µM, first compound 0.0316 µM
[14] = second compound 0.316 µM, first compound 0.1 µM
[15] = second compound 0.316 µM, first compound 0.316 µM
[16] = second compound 0.316 µM, first compound 1 µM
[17] = second compound 0.316 µM, first compound 3.16 µM
[18] = second compound 0.316 µM, first compound 10 µM
[19] = second compound 1 µM, first compound 0.0316 µM
[20] = second compound 1 µM, first compound 0.1 µM
[21] = second compound 1 µM, first compound 0.316 µM
[22] = second compound 1 µM, first compound 1 µM
[23] = second compound 1 µM, first compound 3.16 µM
[24] = second compound 1 µM, first compound 10 µM
[25] = second compound 3.16 µM, first compound 0.0316 µM
[26] = second compound 3.16 µM, first compound 0.1 µM
[27] = second compound 3.16 µM, first compound 0.316 µM
[28] = second compound 3.16 µM, first compound 1 µM
[29] = second compound 3.16 µM, first compound 3.16 µM
[30] = second compound 3.16 µM, first compound 10 µM
[31] = second compound 10 µM, first compound 0.0316 µM
[32] = second compound 10 µM, first compound 0.1 µM
[33] = second compound 10 µM, first compound 0.316 µM
[34] = second compound 10 µM, first compound 1 µM
[35] = second compound 10 µM, first compound 3.16 µM
[36] = second compound 10 µM, first compound 10 µM
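Note: spheroids exposed to compounds for one week.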
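Throughout, for viability, T/C: 100% = vehicle DMSO treated spheroids.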

Structure (SMILES): CCc1cc2c(N3CCc4c(cc(Cn5ccnc5)cc4-c4cn(C)nc4C(F)(F)F)C3=O)ccnc2c(OC)n1 + Nc1ccc(C#CCN(C(=O)Cc2ncc(C(F)(F)F)cc2C(F)(F)F)c2ccc(F)cc2)nn1
- IC50 (second compound 0.0316 µM): > 10 µM
- IC50 (second compound 0.1 µM): 4.78 µM
- IC50 (second compound 0.316 µM): 7.55 µM
- IC50 (second compound 1 µM): 8.72 µM
- IC50 (second compound 3.16 µM): > 10 µM
- IC50 (second compound 10 µM): 5.44 µM
- viability, T/C [1]: 89.5%
- viability, T/C [2]: 124%
- viability, T/C [3]: 110%
- viability, T/C [4]: 70.7%
- viability, T/C [5]: 63.5%
- viability, T/C [6]: 38.4%
- viability, T/C [7]: 88.5%
- viability, T/C [8]: 111%
- viability, T/C [9]: 101%
- viability, T/C [10]: 87.6%
- viability, T/C [11]: 54.9%
- viability, T/C [12]: 41.8%
- viability, T/C [13]: 120%
- viability, T/C [14]: 103%
- viability, T/C [15]: 87.1%
- viability, T/C [16]: 88.9%
- viability, T/C [17]: 86.1%
- viability, T/C [18]: 38.1%
- viability, T/C [19]: 127%
- viability, T/C [20]: 109%
- viability, T/C [21]: 100%
- viability, T/C [22]: 79.1%
- viability, T/C [23]: 63.9%
- viability, T/C [24]: 48%
- viability, T/C [25]: 95.7%
- viability, T/C [26]: 108%
- viability, T/C [27]: 113%
- viability, T/C [28]: 79.8%
- viability, T/C [29]: 64.3%
- viability, T/C [30]: 50.9%
- viability, T/C [31]: 102%
- viability, T/C [32]: 83.9%
- viability, T/C [33]: 83.7%
- viability, T/C [34]: 90.5%
- viability, T/C [35]: 62.6%
- viability, T/C [36]: 35.9%

Structure (SMILES): COc1cccc(OCCCN)c1-c1cc(Nc2cnc(C#N)cn2)n[nH]1 + Cc1cccc(N(C)C(=O)C2C(O)CCN2c2nc(C)cc(C(F)(F)F)c2C#N)c1
- IC50 (second compound 0.0316 µM): 0.00514 µM
- IC50 (second compound 0.1 µM): 0.00554 µM
- IC50 (second compound 0.316 µM): 0.00535 µM
- IC50 (second compound 1 µM): 0.00349 µM
- IC50 (second compound 3.16 µM): 0.00487 µM
- IC50 (second compound 10 µM): < 0.00316 µM
- viability, T/C (second compound 0.0316 µM, first compound 0.00316 µM): 80.6%
- viability, T/C (second compound 0.0316 µM, first compound 0.01 µM): 8.11%
- viability, T/C [1]: 6.8%
- viability, T/C [2]: 5.31%
- viability, T/C [3]: 4.65%
- viability, T/C [4]: 4.03%
- viability, T/C (second compound 0.1 µM, first compound 0.00316 µM): 89.8%
- viability, T/C (second compound 0.1 µM, first compound 0.01 µM): 8.11%
- viability, T/C [7]: 6.65%
- viability, T/C [8]: 5.48%
- viability, T/C [9]: 6.82%
- viability, T/C [10]: 4.61%
- viability, T/C (second compound 0.316 µM, first compound 0.00316 µM): 84.1%
- viability, T/C (second compound 0.316 µM, first compound 0.01 µM): 9.52%
- viability, T/C [13]: 6.22%
- viability, T/C [14]: 5.29%
- viability, T/C [15]: 5.08%
- viability, T/C [16]: 4.86%
- viability, T/C (second compound 1 µM, first compound 0.00316 µM): 53.9%
- viability, T/C (second compound 1 µM, first compound 0.01 µM): 8.32%
- viability, T/C [19]: 6.96%
- viability, T/C [20]: 6.49%
- viability, T/C [21]: 5.31%
- viability, T/C [22]: 4.98%
- viability, T/C (second compound 3.16 µM, first compound 0.00316 µM): 70.3%
- viability, T/C (second compound 3.16 µM, first compound 0.01 µM): 16.3%
- viability, T/C [25]: 7.33%
- viability, T/C [26]: 5.44%
- viability, T/C [27]: 6.24%
- viability, T/C [28]: 4.93%
- viability, T/C (second compound 10 µM, first compound 0.00316 µM): 48.1%
- viability, T/C (second compound 10 µM, first compound 0.01 µM): 11.5%
- viability, T/C [31]: 7.44%
- viability, T/C [32]: 5.3%
- viability, T/C [33]: 6.55%
- viability, T/C [34]: 4.1%

Structure (SMILES): CCCS(=O)(=O)Nc1ccc(F)c(C(=O)c2c[nH]c3ncc(-c4ccc(Cl)cc4)cc23)c1F + Cc1cccc(N(C)C(=O)C2C(O)CCN2c2nc(C)cc(C(F)(F)F)c2C#N)c1
- IC50 (second compound 0.0316 µM): 4.25 µM
- IC50 (second compound 0.1 µM): 3.82 µM
- IC50 (second compound 0.316 µM): 3.99 µM
- IC50 (second compound 1 µM): 3.12 µM
- IC50 (second compound 3.16 µM): 2.92 µM
- IC50 (second compound 10 µM): 2 µM
- viability, T/C [1]: 104%
- viability, T/C [2]: 105%
- viability, T/C [3]: 108%
- viability, T/C [4]: 99.8%
- viability, T/C [5]: 65.3%
- viability, T/C [6]: 5.8%
- viability, T/C [7]: 94.5%
- viability, T/C [8]: 87.3%
- viability, T/C [9]: 100%
- viability, T/C [10]: 86.4%
- viability, T/C [11]: 59.1%
- viability, T/C [12]: 4.58%
- viability, T/C [13]: 90.7%
- viability, T/C [14]: 101%
- viability, T/C [15]: 89.1%
- viability, T/C [16]: 96%
- viability, T/C [17]: 61.9%
- viability, T/C [18]: 3.41%
- viability, T/C [19]: 101%
- viability, T/C [20]: 93.2%
- viability, T/C [21]: 79.6%
- viability, T/C [22]: 108%
- viability, T/C [23]: 49.4%
- viability, T/C [24]: 2.83%
- viability, T/C [25]: 94.1%
- viability, T/C [26]: 84.6%
- viability, T/C [27]: 94%
- viability, T/C [28]: 98.4%
- viability, T/C [29]: 46.8%
- viability, T/C [30]: 2.44%
- viability, T/C [31]: 80.1%
- viability, T/C [32]: 71.7%
- viability, T/C [33]: 80.6%
- viability, T/C [34]: 83.3%
- viability, T/C [35]: 30.8%
- viability, T/C [36]: 0.79%
